In assay [1] the test system is volunteer suffering from diabetes. Briefly: sugar curve after dietic breakfast in volunteer with diabetes in a light form. It counts as in vivo, human. How it is done:
Volunteer (body weight 89 kg) suffered from diabetes in a light form for 10 years. The blood sugar level in the morning on empty stomach was varied from 125 to 190 mg%. On recommendation of the endocrinologist, they were treated with maninyl in a dose of from 0.00125 to 0.0025 g (1/4-1/2 of a tablet) a day. 6 tests were performed including 1 control sugar curve at the background of administration of a dietic breakfast, the 2-nd test--the same curve but with administration, during breakfast, of 0.00125 g of maninyl and 4 tests with the preparation according to the present invention. The doses of insulin in the plates of the preparation of this invention were […]. The duration of resorption of the plates was 9 to 36 minutes. The breakfast was 9-37 minutes thereafter.
The sugar curve obtained after the control test against the background of having a dietic breakfast without hypoglycemic remedies had the following character: the starting blood sugar level was 125 mg%; after 30 minutes since the breakfast--153 mg%; 60 minutes thereafter--155 mg%, 2 hours thereafter--135 mg%, i.e., after 30 and 60 minutes, the blood sugar level was increased by 22 and 24% respectively relative to the initial value.
In a week, the test was repeated; however, during the dietic breakfast, the volunteer was administered 0.00125 g of maninyl (1/4 of a tablet). […] The absolute level of blood sugar was as high as 200 mg%. After 120 minutes, a high blood sugar level was retained--170 mg% which was by 10% higher than the initial value on the same day of investigation.
One week afterwards, the experiment was repeated. The initial level of blood sugar was equal to 190 mg%. The volunteer was administered a plate of the preparation of this invention containing 16 units of insulin (test dose) sublingually; 30 minutes thereafter, the volunteer had breakfast (dietic one). 30 minutes after the breakfast, the blood sugar level was increased up to 200 mg% (by 5% altogether) which was by 17% below the raise in the control test; after 60 minutes--by 26% (240 mg%) which substantially corresponded to the level raise in the control investigation (+2%) and after 120 minutes--reduced by 8% of the initial value (175 mg%) which was by 16% below the level in the control test.

In assay [2] the test system is volunteer patients-physicians. Briefly: sugar curve after glucose load per os (0.7 g/kg) in volunteers. In kind it is in vivo, human. The settings on record: for decrease in the blood sugar level as compared to the control sugar curve: subcutaneous 16 units (after volunteer I.). How it is done: The pharmaceutical preparation for the treatment of diabetes mellitus has been studied on volunteer patients-physicians. The experiments have been performed on 8 volunteers. 58 tests were carried out including 9 control tests without administration of insulin, 6 control tests with subcutaneous administration of insulin and 43 experimental tests with the administration of plates of the preparation according to the present invention. The control investigation--a sugar curve--has been taken for every volunteer. This involved determination of the blood sugar level in an empty stomach, whereafter the patient was administered glucose per os at the rate of 0.7 g/kg of the body weight diluted with 200 ml of warm water and then the blood sugar level was determined after 30, 60 and 120 minutes. Therefore, in this manner, the blood sugar level variations were determined under the effect of administration of gluclose including the determination of the maximum increase as a percentage of the starting sugar level in blood in the empty-stomach state. After 1-2 weeks, the investigation with a similar sugar load was repeated simultaneously with subcutaneous administration of crystalline insulin at the rate of 0.1-0.2 unit/kg of the body weight right after the administration of the same dose of glucose. After an additional 1-2 weeks, the investigation with the preparation according to the present invention has been carried out. The preparation according to the present invention in the form of plates of a polymer was placed under the tongue by application of the plates to the lower lingual surface at its root or at any other suitable place of the mucous membrane of the mouth cavity. The content of insulin in the plates was varied from 8 to 150 units. After a complete resorption of the plate, maximum within 60 minutes, the volunteer was given a standard dose of glucose per os. The blood examination for sugar has been performed on an empty stomach after 30, 60 and 120 minutes since the glucose administration. The hypoglycemic effect of the test preparations was evaluated by the difference in sugar levels in blood (%) as compared to the control test (without insulin).

A further assay has as its system patients. The settings on record: subcutaneous (sometimes intramuscular) injection, majority of patients; cited from earlier work.

`COc1ccc(Cl)cc1C(=O)NCCc1ccc(S(=O)(=O)NC(=O)NC2CCCCC2)cc1` [maninyl]: the “raise of the sugar curve, % of the initial value” in assay [1] (0.00125 g during dietic breakfast, after 30 and 60 minutes, starting level 155 mg%) was “+29%”. In addition, the “blood sugar level higher than the initial value” in assay [1] (0.00125 g during dietic breakfast, after 120 minutes) is recorded as 10%. For the same molecule, in assay [1] (0.00125 g during dietic breakfast, starting level 155 mg%), the “absolute level of blood sugar (as high as)” value is on record as 200 mg%. Also, the “hypoglycemic effect (in words)” value in assay [1] (dose prescribed by the endocrinologist) is recorded as “no hypoglycemic effect at all”.

With “crystalline insulin: crystalline insulin administered subcutaneously as comparison”, the “sugar level higher than the control value” in assay [2] (subcutaneous 8 units (volunteer D.), after 30 minutes) was found to be 6%. Moreover, the “sugar level below the control level” value in assay [2] (subcutaneous 8 units (volunteer D.), after 60 minutes) was determined as 60%. Besides, in assay [2] (subcutaneous 8 units (volunteer D.), after 120 minutes), the “sugar level above the control level” value is reported as 20%. In addition, the “blood sugar level exceeded the control value” in assay [2] (subcutaneous 8 units (volunteer P.), after 30 minutes) is listed as 16%. The “blood sugar level below the control value” in assay [2] (subcutaneous 8 units (volunteer P.), after 60 minutes) is 43%. Moreover, the “blood sugar level below the control” value in assay [2] (subcutaneous 8 units (volunteer P.), after 120 minutes) was determined as 12%. In addition, the “blood sugar level increased as compared to the initial value” in assay [2] (subcutaneous 8 units with 56 g glucose (volunteer D.), after 30 minutes) is 86%; in assay [2] (subcutaneous 8 units with 56 g glucose (volunteer D.), after 60 minutes) it was 40%; in assay [2] (subcutaneous 8 units with 56 g glucose (volunteer D.), after 120 minutes) it was 33%; in assay [2] (subcutaneous 8 units with 56 g glucose (volunteer P.), after 30 minutes), 87%. Further, the “blood sugar level lowered” value in assay [2] (subcutaneous 8 units with 56 g glucose (volunteer P.), after 60 minutes) amounted to 53%. Moreover, the “blood sugar level relative to the initial level (in words)” value in assay [2] (subcutaneous 8 units with 56 g glucose (volunteer P.), after 120 minutes) is recorded as “returned to the initial level”. Also, the “decrease in the blood sugar level as compared to the control sugar curve” value is given as 55% in assay [2] (after 30 minutes), 18% in assay [2] (after 60 minutes) and 34% in assay [2] (after 120 minutes). The “sugar level in blood increased relative to the initial value” worked out at 31% in assay [2] (subcutaneous 16 units with 56 g glucose (after volunteer I.), after 30 minutes) and 13% in assay [2] (subcutaneous 16 units with 56 g glucose (after volunteer I.), after 60 minutes). In assay [2] (subcutaneous 16 units with 56 g glucose (after volunteer I.), after 120 minutes), the “sugar level in blood reduced relative to the initial value” is recorded as 7%. In the assay on patients, the “time to maximum effect” value is 2 to 5 h.

(Values after patent US4529589A, “Pharmaceutical composition for the treatment of diabetes mellitus” (priority 1981, dated 1985).)
